Source: ChEMBL document CHEMBL1156098, “Antitumor agents 269. Non-aromatic ring-A neotanshinlactone analog, TNO, as a new class of potent antitumor agents” (2009)
pEC50: −log10 of the molar value.

Assays:
Format in all cases: functional
[1] = Cytotoxicity against human KBVIN cells after 3 days by SRB assay; conditions: 72 h, read-out: ED50 (the source's name)
A549 = assay: Cytotoxicity against human A549 cells after 3 days by SRB assay; conditions: A549, 72 h, read-out: ED50 (the source's name)
MDA-MB-231 = assay: Cytotoxicity against human MDA-MB-231 cells after 3 days by SRB assay; conditions: MDA-MB-231, 72 h, read-out: ED50 (the source's name)
ZR-75-1 = assay: Cytotoxicity against human ZR-75-1 cells after 3 days by SRB assay; conditions: ZR-75-1, 72 h, read-out: ED50 (the source's name)
SK-BR-3 = assay: Cytotoxicity against human SK-BR-3 cells after 3 days by SRB assay; conditions: SK-BR-3, 72 h, read-out: ED50 (the source's name)
KB = assay: Cytotoxicity against human KB cells after 3 days by SRB assay; conditions: 72 h, read-out: ED50 (the source's name)
DU-145 = assay: Cytotoxicity against human DU145 cells after 3 days by SRB assay; conditions: DU-145, 72 h, read-out: ED50 (the source's name)

## Cc1cccc2c1ccc1c3occ(C)c3c(=O)oc21
[1]
  pEC50: < 4.43
A549
  pEC50: 4.27
MDA-MB-231
  pEC50: 4.42
ZR-75-1
  pEC50: 5.96
SK-BR-3
  pEC50: 6.10
KB
  pEC50: < 4.43
DU-145
  pEC50: 4.23

## CCc1cccc2c(O)c(-c3occ(C)c3C(=O)O)ccc12
[1]
  pEC50: 4.63
A549
  pEC50: 4.45
MDA-MB-231
  pEC50: < 4.43
ZR-75-1
  pEC50: 6.00
SK-BR-3
  pEC50: 5.47
KB
  pEC50: 4.51
DU-145
  pEC50: 4.53

## Cc1coc2c1c(=O)oc1c3c(ccc12)CCC3
[1]
  pEC50: < 4.43
A549
  pEC50: < 4.43
MDA-MB-231
  pEC50: < 4.43
ZR-75-1
  pEC50: < 4.43
SK-BR-3
  pEC50: < 4.22
KB
  pEC50: < 4.43
DU-145
  pEC50: < 4.43

## Cc1coc2c1c(=O)oc1c3c(ccc12)CCCC3
[1]
  pEC50: 4.99
A549
  pEC50: 4.99
MDA-MB-231
  pEC50: 4.41
ZR-75-1
  pEC50: 5.08
SK-BR-3
  pEC50: 5.29
KB
  pEC50: 4.50
DU-145
  pEC50: 4.49

## CCOc1c(-c2occ(C)c2CO)ccc2c1CCCC2(C)C
[1]
  pEC50: 4.82
A549
  pEC50: 4.64
MDA-MB-231
  pEC50: 4.40
ZR-75-1
  pEC50: 4.84
SK-BR-3
  pEC50: 5.00
KB
  pEC50: 4.77
DU-145
  pEC50: 4.76

## Cc1coc(-c2ccc3c(c2O)CCCC3(C)C)c1C(=O)O
[1]
  pEC50: 5.33
A549
  pEC50: 5.48
MDA-MB-231
  pEC50: 4.61
ZR-75-1
  pEC50: 5.77
SK-BR-3
  pEC50: 6.15
KB
  pEC50: 5.33
DU-145
  pEC50: 5.52

## Cc1coc(-c2ccc3c(c2O)CCC3)c1C(=O)O
[1]
  pEC50: 4.52
A549
  pEC50: 4.38
MDA-MB-231
  pEC50: 4.35
ZR-75-1
  pEC50: 4.52
SK-BR-3
  pEC50: 4.52
KB
  pEC50: 4.50
DU-145
  pEC50: 4.42

## CCOCc1c(C)coc1-c1ccc2c(c1OC)CCCC2(C)C
[1]
  pEC50: 4.78
A549
  pEC50: 4.64
MDA-MB-231
  pEC50: 4.37
ZR-75-1
  pEC50: 4.70
SK-BR-3
  pEC50: 4.70
KB
  pEC50: 4.67
DU-145
  pEC50: 4.75

## COc1c(-c2occ(C)c2C(=O)O)ccc2c1CCCC2(C)C
[1]
  pEC50: 4.32
A549
  pEC50: 4.27
MDA-MB-231
  pEC50: < 4.21
ZR-75-1
  pEC50: 4.38
SK-BR-3
  pEC50: 4.59
KB
  pEC50: 4.36
DU-145
  pEC50: 4.47

## Cc1coc(-c2ccc3c(c2O)CCCC3)c1C(=O)O
[1]
  pEC50: 4.53
A549
  pEC50: 4.24
MDA-MB-231
  pEC50: 4.13
ZR-75-1
  pEC50: 4.66
SK-BR-3
  pEC50: 4.49
KB
  pEC50: 4.30
DU-145
  pEC50: 4.39

## COc1c(-c2occ(C)c2COC(C)=O)ccc2c1CCCC2(C)C
[1]
  pEC50: 4.60
A549
  pEC50: 4.54
MDA-MB-231
  pEC50: 4.25
ZR-75-1
  pEC50: 4.81
SK-BR-3
  pEC50: 4.85
KB
  pEC50: 4.60
DU-145
  pEC50: 4.78

## COc1c(-c2occ(C)c2CO)ccc2c1CCCC2(C)C
[1]
  pEC50: 4.66
A549
  pEC50: 4.63
MDA-MB-231
  pEC50: 4.55
ZR-75-1
  pEC50: 4.82
SK-BR-3
  pEC50: 4.63
KB
  pEC50: 4.60
DU-145
  pEC50: 4.66

## Cc1coc2c1c(=O)oc1c3c(ccc12)C(C)(C)CCC3
[1]
  pEC50: 4.46
A549
  pEC50: 4.55
MDA-MB-231
  pEC50: < 4.43
ZR-75-1
  pEC50: 4.49
SK-BR-3
  pEC50: 4.45
KB
  pEC50: 4.52
DU-145
  pEC50: 4.50

## COC(=O)c1c(C)coc1-c1ccc2c(c1OC)CCCC2(C)C
[1]
  pEC50: 4.28
A549
  pEC50: 4.21
MDA-MB-231
  pEC50: 4.21
ZR-75-1
  pEC50: 4.46
SK-BR-3
  pEC50: 4.57
KB
  pEC50: 4.27
DU-145
  pEC50: 4.47

## COCc1c(C)coc1-c1ccc2c(c1OC)CCCC2(C)C
[1]
  pEC50: 4.70
A549
  pEC50: 4.71
MDA-MB-231
  pEC50: 4.32
ZR-75-1
  pEC50: 4.84
SK-BR-3
  pEC50: 4.73
KB
  pEC50: 4.94
DU-145
  pEC50: 4.76

## Cc1coc(-c2ccc3c(c2O)CCCC3(C)C)c1CO
[1]
  pEC50: 4.70
A549
  pEC50: 4.61
MDA-MB-231
  pEC50: 4.40
ZR-75-1
  pEC50: 4.59
SK-BR-3
  pEC50: 4.67
KB
  pEC50: 4.66
DU-145
  pEC50: 4.64
